These results are taken from patent US5741788A, “Heterocyclic compounds and their preparation and use” (Novo Nordisk A/S, priority 1994, dated 1998).

Structures can show the parent of a compound that is named as a salt. Where two headings read alike, the source gives them in different places. Some results are limits rather than exact numbers.

The target of experiment [1] is muscarinic acetylcholine receptors. Briefly: inhibition of specific binding of ^3 H-Oxotremorine-M (^3 H-Oxo) to rat cortex homogenate. Details: species or system male Wistar rats. To be noted: 1.0 nM radioligand, 30 min at 25° C., pH 7.4. An excerpt:
The pharmacological properties of the compounds of the invention can be illustrated by determining their capability to inhibit the specific binding of ^3 H-Oxotremorine-M (^3 H-Oxo). Birdsdall N. J. M., Hulme E. C., and Burgen A. S. V. (1980). "The Character of Muscarinic Receptors in Different Regions of the Rat Brain". Proc. Roy. Soc. London (Series B) 207,1.
^3 H-Oxo labels muscarinic receptor in the CNS (with a preference for agonist domains of the receptors). Three different sites are labelled by ^3 H-Oxo. […] Using the present experimental conditions only the high and medium affinity sites are determined.
The inhibitory effects of compounds on ^3 H-Oxo binding reflects the affinity for muscarinic acetylcholine receptors.
All preparations are performed at 0°-4° C. unless otherwise indicated. Fresh cortex (0.1-1 g) from male Wistar rats (150-250 g) is homogenized for 5-10 s in 10 ml 20 mM Hepes pH: 7.4, with an Ultra-Turrax homogenizer. The homogenizer is rinsed with 10 ml of buffer and the combined suspension centrifuged for 15 min. at 40,000×g. The pellet is washed three times with buffer. In each step the pellet is homogenized as before in 2×10 ml of buffer and centrifuged for 10 min. at 40,000×g.
The final pellet is homogenized in 20 mM Hepes pH: 7.4 (100 ml per g of original tissue) and used for binding assay. Aliquots of 0.5 ml is added 25 ul of test solution and 25 ul of ^3 H-Oxotremorine (1.0 nM, final concentration) mixed and incubated for 30 min. at 25° C. Non-specific binding is determined in triplicate using arecoline (1 ug/ml, final concentration) as the test substance. After incubation samples are added 5 ml of ice-cold buffer and poured directly onto Whatman GF/C glass fiber filters under suction and immediately washed 2 times with 5 ml of ice-cold buffer. The amount of radioactivity on the filters are determined by conventional liquid scintillation counting. Specific binding is total binding minus non specific binding.
Test substances are dissolved in 10 ml water (if necessary heated on a steam-bath for less than 5 min.) at a concentration of 2.2 mg/ml. 25-75% inhibition of specific binding must be obtained before calculation of IC50.
The test value will be given as IC50 (the concentration (nM) of the test substance which inhibits the specific binding of ^3 H-Oxo by 50%).
(§1) IC50 =(applied test substance concentration)×(Cx /Co -Cx)nM
(§2) where Co is specific binding in control assays and Cx is the specific binding in the test assay. (The calculations assume normal mass-action kinetics).

For experiment [2], the target named is T1, M1-site (pirenzepine sensitive site) of muscarinic receptors (Rattus norvegicus, UniProt P08482).
T1 construct: Fresh cortex (0.1-1 g) from male Wistar rats (150-200 g) is homogenized; from tissue; host or cells: cerebral cortex of male Wistar rats
T1 sequence (P08482 1-460): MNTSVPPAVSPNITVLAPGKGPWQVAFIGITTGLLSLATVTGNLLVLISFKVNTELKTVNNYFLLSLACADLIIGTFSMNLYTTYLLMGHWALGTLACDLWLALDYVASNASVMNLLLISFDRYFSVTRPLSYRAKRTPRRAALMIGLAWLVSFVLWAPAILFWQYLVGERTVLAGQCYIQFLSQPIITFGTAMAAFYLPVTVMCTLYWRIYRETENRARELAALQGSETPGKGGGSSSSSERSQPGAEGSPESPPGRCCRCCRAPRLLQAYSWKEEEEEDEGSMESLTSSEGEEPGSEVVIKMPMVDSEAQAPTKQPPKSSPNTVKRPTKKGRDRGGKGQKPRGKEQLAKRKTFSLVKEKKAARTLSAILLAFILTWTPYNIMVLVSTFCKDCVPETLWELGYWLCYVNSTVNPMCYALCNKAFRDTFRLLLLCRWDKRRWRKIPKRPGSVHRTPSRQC
Kind of experiment: inhibition of ^3 H-PRZ (pirenzepine, [N-methyl-^3 H]) binding to rat cerebral cortex membranes. More on the design: species or system male Wistar rats.
Text: Furthermore the pharmacological properties of the compounds of the invention can also be illustrated by determining their capability to inhibit ^3 H-PRZ (pirenzepine, [N-methyl-^3 H]) binding to rat cerebral cortex membranes. Pirenzepine binds selectively to subtype of muscarinic receptors. Historically the type is named the M1 -site, whereas pirenzepine sensitive site would be more appropriate. Although selective for M1 -sites pirenzepine also interact with M2 -sites.
All preparations are performed at 0°-4° C. unless otherwise indicated. Fresh cortex (0.1-1 g) from male Wistar rats (150-200 g) is homogenized for 5-10 s. in 10 ml 20 mM Hepes pH: 7.4, with an Ultra-Turraxhomogenizer. The homogenizer is rinzed with 2×10 ml of buffer and the combined suspension centrifuged for 15 min at 40,000×g. The pellet is washed three times with buffer. In each step the pellet is homogenized as before in 3×10 ml of buffer and centrifuged for 10 min at 40,000×g.
The final pellet is homogenized in 20 mM Hepes pH: 7.4 (100 ml per g of original tissue) and used for binding assay. Aliquots of 0.5 ml is added 20 μl of test solution and 25 μl of ^3 H-Pirenzepine (1.0 nM, final conc.), mixed and incubated for 60 min at 20° C. Non-specificbinding is determined in triplicate using atropine (1 μg/ml, final conc.) as the test substance. After incubation samples are added 5 ml of ice-cold buffer and poured directly onto Whatman GF/C glass fiber filters inder suction and immediately washed 2 times with 5 ml of ice-cold buffer. The amount of radioactivity on the filters are determined by conventional liquid scintillation counting. Specific binding is total binding minus non-specific binding.
Test substances are dissolved in 10 ml water, at a concentration of 0.22 mg/ml. 25-75% inhibition of specific binding must be obtained before calculation of IC50.
The test value will be given as IC50 (the concentration (nM) of the test substance which inhibits the specific binding of ^3 H-PRZ by 50%).
as §1, §2

For experiment [3], the target named is muscarinic receptor in the CNS. To be noted: read-out: affinity of site labelled by ^3 H-Oxo, cited from earlier work.

Consider `C1Cc2sc3nsnc3c2CN1.O=C(O)C(=O)O` [Compound 2, 5,6,7,8-Tetrahydro-1,2,5-thiadiazolo[3',4':4,5]thieno[3,2-c]pyridine oxalate], for which the “^3 H-Oxo-M IC50” value in experiment [1] is 0.0064 µg/mL. Moreover, the IC50 in experiment [2] (rat cortex, 1.0 nM ^3 H-Pirenzepine, 60 min at 20° C., pH 7.4, read-out: ^3 H-Pz IC50) came out at 284 nM.
On to `CN1C2CCC1c1c(sc3nsnc13)C2.O=C(O)C(=O)O` (stereo not shown) [Compound 1, 6,8-Ethano-7-methyl-5,6,7,8-tetrahydro-1,2,5-thiadiazolo[3',4':4,5]thieno[3,2-c]pyridine oxalate], for which the “^3 H-Oxo-M IC50” value in experiment [1] was found to be 0.27 µg/mL. In experiment [2], the IC50 was > 1000 nM.
In the same order, the values of `C1CC2CN(C1)Cc1c2sc2nsnc12.O=C(O)C(=O)O` (stereo not shown) [Compound 3, 5,9-Methano-5,6,7,8,9,10-hexahydro-1,2,5-thiadiazolo[3',4':4,5]thieno[3,2-c]azocine oxalate] are 0.0022 µg/mL and 26 nM.
`C[N+](C)(C)CC#CCN1CCCC1=O` [^3 H-Oxo, ^3 H-Oxotremorine-M]: the Kd is 1.8 nM in experiment [3] (first of three sites (high affinity)); 20 nM in experiment [3] (second of three sites (medium affinity)); 3000 nM in experiment [3] (third of three sites, not determined under the present experimental conditions).
On to `CN1CCC2=C(C1)c1nsnc1SC2` [Compound 5, oxalate], for which the “^3 H-Oxo-M IC50” value in experiment [1] is 0.014 µg/mL. Further, the 50% inhibitory concentration (IC50) in experiment [2] was found to be 80 nM.
For `O=C(O)C(=O)O.c1cc2nsnc2c2c1CCNC2` [Compound 4, 6,7,8,9-Tetrahydro[1,2,5]thiadiazolo[3,4-h]isoquinoline oxalate], in that order: 0.014 µg/mL and 255 nM.
